# From publication PMC9238271, “The quorum sensing peptide EntF* promotes colorectal cancer metastasis in mice: a new factor in the host-microbiome interaction” (BMC Biology, 2022)
# Columns and labels:
# [1] = Serum kinetic profile and daily EntF* exposure after i.p. injection; assay type: in vivo, female Swiss nu/nu mice
# Method: Fifty microliters of serum were mixed with 150 μL 0.5% formic acid in acetonitrile. After sonication for 5 min, samples were vortexed for 5 s, then heated for 30 s at 100 °C. The solution was vortexed and centrifuged for 20 min at 20,000g at 4 °C. The supernatant was purified using solid phase extraction (SPE) on HyperSep C18 plates (Thermo Fisher Scientific, Belgium), previously conditioned with acetonitrile and equilibrated with 75% acetonitrile in water, containing 0.375% formic acid. After loading 150 μL of each sample, 120 μL eluent were collected and organic solvents evaporated using nitrogen (1 L/min) for 5 min. The resulting samples were further diluted with 30 μL of BSA-based anti-adsorption solution, and analyzed by LC-MS.
# (§1) EntF* was detected and quantified on a Waters Acquity® UPLC H-class system, connected to a Waters Xevo™ TQ-S triple quadrupole mass spectrometer with electrospray ionization (operated in positive ionization mode). Autosampler tray and column oven were kept at 10 ± 5 °C and 60 ± 5 °C, respectively. Chromatographic separation was achieved on a Waters Acquity® UPLC BEH Peptide C18 column (300 Å, 1.7 μm, 2.1 mm × 100 mm). The mobile phases consisted of 93/2/5 water/acetonitrile/DMSO (V/V/V) containing 0.1% formic acid (mobile phase A) and 2/93/5 water/acetonitrile/DMSO (V/V/V) containing 0.1% formic acid (mobile phase B), and the flow rate was set to 0.5 mL/min. A 10-μL aliquot from each sample was injected. The gradient program started with 80% of mobile phase A for 1 min, followed by a linear gradient to 40% of mobile phase A for 3.5 min. Gradient was then changed to 14.2% mobile phase A at 5 min, followed by a 1 min equilibration, before starting conditions were applied. EntF* retention time was between 4.25 and 4.45 min.
# To calculate daily peptide exposure, female Swiss nu/nu mice (n = 14) were i.p. injected with 25 μL of 100 μM EntF*, their serum withdrawn at different time points and analyzed by LC1-MS1. A distribution and early exponential phase (α, 0-30 min), followed by a terminal elimination phase (β, 30–180 min) could be distinguished. The exposure was determined over a period of 24 h (x) as follows: ExposurenMxmin=∫030Ae^-αt+∫30xBe^-βt .
# [2] = Formation of EntF* from EntF in HBSS (buffer); assay type: in vitro ADME; conditions: for Formation rate, HBSS: EntF in HBSS; for EntF* Conc formed from EntF / EntF* without metabolisation, Conc / EntF*/EntF: single run
# [3] = In vitro metabolization of EntF: formation of EntF* in feces homogenate; assay type: in vitro ADME, C57BL/6 female mice; conditions: for EntF* Conc / EntF* without metabolisation, Conc / EntF*/EntF %: Feces, initial concentration EntF 31.82 µM
# Method: Krebs-Henseleit (KH) buffer (Sigma-Aldrich, Belgium) was prepared by dissolving the powdered medium in 900 mL water while stirring. Once the powder was completely dissolved, 0.3790 g CaCl2•2H2O and 2.098 g NaHCO3 were added to the solution. NaOH or HCl was used to adjust the pH to 7.4. The solution was brought to final volume (1000 mL) with ultrapure water.
# Feces homogenates were prepared, after collecting fecal material from two untreated C57BL/6 female mice after cervical dislocation, by using the same procedures employed for colon tissue homogenate preparation. Before use, the homogenate was diluted to a final protein concentration of 0.6 mg/mL.
# To avoid the absorption of EntF* onto plasticware and glassware, all tubes and containers were coated with a BSA-based anti-adsorption solution before use.
# Five hundred microliters of tissue homogenate were mixed with 400 μL of pre-warmed KH buffer. Then, 100 μL of KH buffer (blank) or 1 mg/mL EntF peptide solution (test) were added to the diluted homogenate and incubated at 37 °C. […] After centrifugation at 16,000g for 30 min at 5 °C, supernatants were analyzed by LC1-MS1 for EntF* quantification.
# as §1
# An optimized capillary voltage of 3.00 kV, a cone voltage of 20.00 V, and a source offset of 50.0 V were used. Acquisition was done in the MRM mode. The selected precursor ion for EntF* was m/z 865.7 with two selected product ions at m/z 202.08 (36 eV, b2 fragment) as quantifier and m/z 315.17 (31 eV, b3 fragment) as qualifier.
# [4] = HBSS, initial concentration EntF 31.82 µM, time 0
# [5] = HBSS, initial concentration EntF 31.82 µM, time 1
# [6] = HBSS, initial concentration EntF 31.82 µM, time 5
# [7] = HBSS, initial concentration EntF 31.82 µM, time 10
# [8] = HBSS, initial concentration EntF 31.82 µM, time 30
# [9] = HBSS, initial concentration EntF 31.82 µM, time 60
# [10] = HBSS, initial concentration EntF 31.82 µM, time 120
# [11] = HBSS, initial concentration EntF 31.82 µM, time 180
smiles,measurement,setting,value
"CC(C)C[C@@H]1NC(=O)[C@H](CO)NC(=O)[C@H](Cc2ccccc2)NC(=O)[C@H](C(C)C)NC(=O)[C@@H](NC(=O)[C@H](CCC(=O)O)NC(=O)[C@@H](NC(=O)[C@H](CC(C)C)NC(=O)[C@H](CC(N)=O)NC(=O)[C@@H](N)CO)C(C)C)CSSC[C@@H](C(=O)N[C@@H](CC(N)=O)C(=O)O)NC(=O)[C@H](CCCCN)NC(=O)[C@H](CCCCN)NC(=O)[C@H](Cc2ccccc2)NC1=O (single isomer, unassigned) [EntF*]","Daily exposure during CRC experiment, Exposure (nM*min), Distribution phase",[1]; after 100 nmol kg-1 EntF* i.p. injection,74.91 nM·min
same,"Distribution phase, serum level, Average","[1]; after 100 nmol kg-1 EntF* i.p. injection, 5 min, mean of n = 4",4.2292
same,"Distribution phase, serum level, Average","[1]; after 100 nmol kg-1 EntF* i.p. injection, 10 min, mean of n = 4",2.596
same,"Distribution phase, serum level, Average","[1]; after 100 nmol kg-1 EntF* i.p. injection, 15 min, mean of n = 4",2.427
same,"Elimination phase, serum level, Average","[1]; after 100 nmol kg-1 EntF* i.p. injection, 60 min, mean of n = 4",0.2851
same,"Elimination phase, serum level, Average","[1]; after 100 nmol kg-1 EntF* i.p. injection, 120 min, mean of n = 4",0.389
same,level at time molar at 0.5 h,"[1]; female, Swiss nu/nu, mouse, serum, ip, after 100 nmol kg-1 EntF* i.p. injection, 30 min, mean of n = 4, read-out: Distribution phase / Elimination phase, serum level, Average",0.854 nM
same,level at time molar at 3 h,"[1]; female, Swiss nu/nu, mouse, serum, ip, after 100 nmol kg-1 EntF* i.p. injection, 180 min, mean of n = 4, read-out: Elimination phase, serum level, Average",0.195 nM
same,EntF* serum concentration,"[1]; serum, 5 min after i.p. injection, Xgem (mean of 4 values)",4.2292 nM
same,EntF* serum concentration,"[1]; serum, 10 min after i.p. injection, Xgem (mean of 4 values)",2.5962 nM
same,EntF* serum concentration,"[1]; serum, 15 min after i.p. injection, Xgem (mean of 4 values)",2.4271 nM
same,EntF* serum concentration,"[1]; serum, 30 min after i.p. injection, Xgem (mean of 4 values)",0.8544 nM
same,EntF* serum concentration,"[1]; serum, 60 min after i.p. injection, Xgem (mean of 4 values)",0.2851 nM
same,EntF* serum concentration,"[1]; serum, 120 min after i.p. injection, Xgem (mean of 4 values)",0.3890 nM
same,EntF* serum concentration,"[1]; serum, 180 min after i.p. injection, replicate X1,2",0.4699 nM
same,EntF* serum concentration,"[1]; serum, 180 min after i.p. injection, replicate X2,2",0.5336 nM
same,"Formation rate, HBSS",[2]; value X1,0.0321 %*min-1
same,"Formation rate, HBSS",[2]; value X2,0.0130 %*min-1
same,"Formation rate, HBSS",[2]; value X3,0.0600 %*min-1
same,"Formation rate, HBSS",[2]; value X4,0.0499 %*min-1
same,"Formation rate, HBSS",[2]; value X5,0.0573 %*min-1
same,"Formation rate, HBSS",[2]; value X6,0.0440 %*min-1
same,"Formation rate, HBSS",[2]; value X7,0.0469 %*min-1
same,"Rico, Average","[2]; HBSS, initial concentration EntF 31.82 µM, average over the time points 1-180",0.0433 %*min-1
same,EntF* Conc formed from EntF,[2]; [4],0.00 µM
same,"EntF* without metabolisation, Conc",[2]; [4],0.00 µM
same,"EntF* without metabolisation, Conc",[2]; [5],0.01 µM
same,EntF*/EntF,[2]; [5],0.0321%
same,EntF* Conc formed from EntF,[2]; [6],0.02 µM
same,"EntF* without metabolisation, Conc",[2]; [6],0.02 µM
same,EntF*/EntF,[2]; [6],0.0652%
same,EntF* Conc formed from EntF,[2]; [7],0.19 µM
same,"EntF* without metabolisation, Conc",[2]; [7],0.19 µM
same,EntF*/EntF,[2]; [7],0.60%
same,EntF* Conc formed from EntF,[2]; [8],0.48 µM
same,"EntF* without metabolisation, Conc",[2]; [8],0.48 µM
same,EntF*/EntF,[2]; [8],1.50%
same,EntF* Conc formed from EntF,[2]; [9],1.09 µM
same,"EntF* without metabolisation, Conc",[2]; [9],1.09 µM
same,EntF*/EntF,[2]; [9],3.44%
same,EntF* Conc formed from EntF,[2]; [10],1.68 µM
same,"EntF* without metabolisation, Conc",[2]; [10],1.68 µM
same,EntF*/EntF,[2]; [10],5.28%
same,EntF* Conc formed from EntF,[2]; [11],2.69 µM
same,"EntF* without metabolisation, Conc",[2]; [11],2.69 µM
same,EntF*/EntF,[2]; [11],8.45%
same,stability of EntF* in HBSS,"[2]; HBSS, remark in sheet HBSS",EntF* is stable in HBSS
same,EntF* Conc,[3]; Time 0,0.00 µM
same,"EntF* without metabolisation, Conc",[3]; Time 0,0.0 µM
same,EntF*/EntF %,[3]; Time 0,0.0%
same,EntF* Conc,[3]; Time 1,0.50 µM
same,"EntF* without metabolisation, Conc",[3]; Time 1,0.529 µM
same,EntF*/EntF %,[3]; Time 1,1.7%
same,EntF* Conc,[3]; Time 5,3.00 µM
same,"EntF* without metabolisation, Conc",[3]; Time 5,3.9 µM
same,EntF*/EntF %,[3]; Time 5,12.4%
same,EntF* Conc,[3]; Time 10,2.69 µM
same,"EntF* without metabolisation, Conc",[3]; Time 10,4.6 µM
same,EntF*/EntF %,[3]; Time 10,14.5%
same,EntF* Conc,[3]; Time 30,2.33 µM
same,"EntF* without metabolisation, Conc",[3]; Time 30,11.8 µM
same,EntF*/EntF %,[3]; Time 30,37.1%
same,"Formation rate, Faeces, Average","[3]; mouse feces homogenate, Krebs-Henseleit buffer pH 7.4, 37 °C, LC1-MS1, average of X1-X4",1.71 %*min-1
same,"Formation rate, Faeces","[3]; mouse feces homogenate, Krebs-Henseleit buffer pH 7.4, 37 °C, LC1-MS1, replicate X1",1.6635 %*min-1
same,"Formation rate, Faeces","[3]; mouse feces homogenate, Krebs-Henseleit buffer pH 7.4, 37 °C, LC1-MS1, replicate X2",2.4748 %*min-1
same,"Formation rate, Faeces","[3]; mouse feces homogenate, Krebs-Henseleit buffer pH 7.4, 37 °C, LC1-MS1, replicate X3",1.4512 %*min-1
same,"Formation rate, Faeces","[3]; mouse feces homogenate, Krebs-Henseleit buffer pH 7.4, 37 °C, LC1-MS1, replicate X4",1.2367 %*min-1
